Results published in ChEMBL document CHEMBL4507282, “Data for DCP probe BI-1950” (2021).

What was measured:
[1] = tested on: Tyrosine-protein kinase ABL1 (Homo sapiens), P00519 [Q252H]; conditions: Compound concentration 1000.0 nM
[2] = target: Tyrosine-protein kinase ABL1 (Homo sapiens) (UniProt P00519); conditions: Compound concentration 1000.0 nM
[3] = target: Tyrosine-protein kinase ABL2 (Homo sapiens) (UniProt P42684); conditions: Compound concentration 1000.0 nM
[4] = target: Atypical kinase COQ8A, mitochondrial (Homo sapiens) (UniProt Q8NI60); conditions: Compound concentration 1000.0 nM
[5] = target: 5'-AMP-activated protein kinase catalytic subunit alpha-1 (Homo sapiens) (UniProt Q13131); conditions: Compound concentration 1000.0 nM
[6] = target: Mitogen-activated protein kinase kinase kinase 6 (Homo sapiens) (UniProt O95382); conditions: Compound concentration 1000.0 nM
[7] = target: Tyrosine-protein kinase Blk (Homo sapiens) (UniProt P51451); conditions: Compound concentration 1000.0 nM
[8] = target: Tyrosine-protein kinase BTK (Homo sapiens) (UniProt Q06187); conditions: Compound concentration 1000.0 nM
[9] = target: Calcium/calmodulin-dependent protein kinase type 1 (Homo sapiens) (UniProt Q14012); conditions: Compound concentration 1000.0 nM
[10] = target: Calcium/calmodulin-dependent protein kinase type II subunit alpha (Homo sapiens) (UniProt Q9UQM7); conditions: Compound concentration 1000.0 nM
[11] = target: Dual specificity protein kinase CLK3 (Homo sapiens) (UniProt P49761); conditions: Compound concentration 1000.0 nM
[12] = target: Casein kinase I isoform gamma-1 (Homo sapiens) (UniProt Q9HCP0); conditions: Compound concentration 1000.0 nM
[13] = target: Death-associated protein kinase 3 (Homo sapiens) (UniProt O43293); conditions: Compound concentration 1000.0 nM
[14] = target: Mitogen-activated protein kinase kinase kinase 12 (Homo sapiens) (UniProt Q12852); conditions: Compound concentration 1000.0 nM
[15] = tested on: Epidermal growth factor receptor (Homo sapiens), P00533 [UNDEFINED MUTATION]; conditions: Compound concentration 1000.0 nM
[16] = target: Mitogen-activated protein kinase 7 (Homo sapiens) (UniProt Q13164); conditions: Compound concentration 1000.0 nM
[17] = target: Insulin receptor (Homo sapiens) (UniProt P06213); conditions: Compound concentration 1000.0 nM
[18] = target: Mitogen-activated protein kinase kinase kinase 13 (Homo sapiens) (UniProt O43283); conditions: Compound concentration 1000.0 nM
[19] = target: Mitogen-activated protein kinase kinase kinase kinase 2 (Homo sapiens) (UniProt Q12851); conditions: Compound concentration 1000.0 nM
[20] = target: Serine/threonine-protein kinase 4 (Homo sapiens) (UniProt Q13043); conditions: Compound concentration 1000.0 nM
[21] = target: Serine/threonine-protein kinase 26 (Homo sapiens) (UniProt Q9P289); conditions: Compound concentration 1000.0 nM
[22] = target: Serine/threonine-protein kinase PAK 4 (Homo sapiens) (UniProt O96013); conditions: Compound concentration 1000.0 nM
[23] = target: Phosphorylase b kinase gamma catalytic chain, skeletal muscle/heart isoform (Homo sapiens) (UniProt Q16816); conditions: Compound concentration 1000.0 nM
[24] = target: Phosphatidylinositol 3-kinase C2 domain-containing subunit gamma (Homo sapiens) (UniProt O75747); conditions: Compound concentration 1000.0 nM
[25] = tested on: Phosphatidylinositol 4,5-bisphosphate 3-kinase catalytic subunit alpha isoform (Homo sapiens), P42336 [E545A]; conditions: Compound concentration 1000.0 nM
[26] = target: Serine/threonine-protein kinase pim-1 (Homo sapiens) (UniProt P11309); conditions: Compound concentration 1000.0 nM
[27] = target: Serine/threonine-protein kinase pim-2 (Homo sapiens) (UniProt Q9P1W9); conditions: Compound concentration 1000.0 nM
[28] = target: Serine/threonine-protein kinase PLK1 (Homo sapiens) (UniProt P53350); conditions: Compound concentration 1000.0 nM
[29] = target: Serine/threonine-protein kinase PLK4 (Homo sapiens) (UniProt O00444); conditions: Compound concentration 1000.0 nM
[30] = target: Protein kinase C epsilon type (Homo sapiens) (UniProt Q02156); conditions: Compound concentration 1000.0 nM
[31] = target: cAMP-dependent protein kinase catalytic subunit PRKX (Homo sapiens) (UniProt P51817); conditions: Compound concentration 1000.0 nM
[32] = target: Protein-tyrosine kinase 2-beta (Homo sapiens) (UniProt Q14289); conditions: Compound concentration 1000.0 nM
[33] = tested on: Proto-oncogene tyrosine-protein kinase receptor Ret (Homo sapiens), P07949 [V804L]; conditions: Compound concentration 1000.0 nM
[34] = target: Rho-associated protein kinase 2 (Homo sapiens) (UniProt O75116); conditions: Compound concentration 1000.0 nM
[35] = target: Ribosomal protein S6 kinase alpha-1 (Homo sapiens) (UniProt Q15418); conditions: Compound concentration 1000.0 nM
[36] = target: NUAK family SNF1-like kinase 2 (Homo sapiens) (UniProt Q9H093); conditions: Compound concentration 1000.0 nM
[37] = target: Proto-oncogene tyrosine-protein kinase Src (Homo sapiens) (UniProt P12931); conditions: Compound concentration 1000.0 nM
[38] = target: Tyrosine-protein kinase Srms (Homo sapiens) (UniProt Q9H3Y6); conditions: Compound concentration 1000.0 nM
[39] = target: Serine/threonine-protein kinase tousled-like 1 (Homo sapiens) (UniProt Q9UKI8); conditions: Compound concentration 1000.0 nM
[40] = target: Tyrosine-protein kinase receptor TYRO3 (Homo sapiens) (UniProt Q06418); conditions: Compound concentration 1000.0 nM
[41] = target: Mitogen-activated protein kinase kinase kinase 20 (Homo sapiens) (UniProt Q9NYL2); conditions: Compound concentration 1000.0 nM
[42] = target: 5-hydroxytryptamine receptor 1E (Homo sapiens) (UniProt P28566); conditions: Compound concentration 10.0 uM
[43] = target: D(3) dopamine receptor (Homo sapiens) (UniProt P35462); conditions: Compound concentration 10.0 uM
[44] = target: Histamine H3 receptor (Homo sapiens) (UniProt Q9Y5N1); conditions: Compound concentration 10.0 uM
[45] = target: Sigma intracellular receptor 2 (Homo sapiens, UniProt Q5BJF2); conditions: Compound concentration 10.0 uM
Sequence of Sigma intracellular receptor 2 (Q5BJF2 whole entry): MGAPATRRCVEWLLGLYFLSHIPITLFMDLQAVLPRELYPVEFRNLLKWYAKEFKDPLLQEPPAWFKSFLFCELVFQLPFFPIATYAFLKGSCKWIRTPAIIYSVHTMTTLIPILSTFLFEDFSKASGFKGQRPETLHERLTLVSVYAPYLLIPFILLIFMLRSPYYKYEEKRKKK

Sequence of Mitogen-activated protein kinase kinase kinase kinase 2 (Homo sapiens) (Q12851 whole entry): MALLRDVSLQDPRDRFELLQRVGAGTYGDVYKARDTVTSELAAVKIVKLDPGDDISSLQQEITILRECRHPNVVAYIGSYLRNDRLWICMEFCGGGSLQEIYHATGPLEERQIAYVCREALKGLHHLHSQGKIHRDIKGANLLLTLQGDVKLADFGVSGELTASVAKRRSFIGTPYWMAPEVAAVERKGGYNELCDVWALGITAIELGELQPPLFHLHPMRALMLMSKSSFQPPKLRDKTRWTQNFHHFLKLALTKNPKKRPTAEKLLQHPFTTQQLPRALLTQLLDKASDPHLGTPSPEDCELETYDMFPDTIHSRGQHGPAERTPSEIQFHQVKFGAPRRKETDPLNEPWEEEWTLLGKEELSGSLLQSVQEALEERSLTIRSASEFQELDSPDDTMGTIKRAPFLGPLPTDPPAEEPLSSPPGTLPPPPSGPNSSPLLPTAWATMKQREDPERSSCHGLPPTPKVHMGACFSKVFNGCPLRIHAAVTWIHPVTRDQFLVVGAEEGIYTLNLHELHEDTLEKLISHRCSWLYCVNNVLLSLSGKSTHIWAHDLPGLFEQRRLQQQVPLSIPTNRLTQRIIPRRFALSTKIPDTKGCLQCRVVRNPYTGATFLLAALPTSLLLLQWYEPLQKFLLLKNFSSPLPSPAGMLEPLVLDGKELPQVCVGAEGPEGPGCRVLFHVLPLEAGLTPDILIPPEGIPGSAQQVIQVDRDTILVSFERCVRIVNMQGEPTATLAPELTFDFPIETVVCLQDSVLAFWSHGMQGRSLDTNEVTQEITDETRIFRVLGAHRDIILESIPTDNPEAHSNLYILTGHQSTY
Sequence of Tyrosine-protein kinase BTK (Homo sapiens) (Q06187 whole entry): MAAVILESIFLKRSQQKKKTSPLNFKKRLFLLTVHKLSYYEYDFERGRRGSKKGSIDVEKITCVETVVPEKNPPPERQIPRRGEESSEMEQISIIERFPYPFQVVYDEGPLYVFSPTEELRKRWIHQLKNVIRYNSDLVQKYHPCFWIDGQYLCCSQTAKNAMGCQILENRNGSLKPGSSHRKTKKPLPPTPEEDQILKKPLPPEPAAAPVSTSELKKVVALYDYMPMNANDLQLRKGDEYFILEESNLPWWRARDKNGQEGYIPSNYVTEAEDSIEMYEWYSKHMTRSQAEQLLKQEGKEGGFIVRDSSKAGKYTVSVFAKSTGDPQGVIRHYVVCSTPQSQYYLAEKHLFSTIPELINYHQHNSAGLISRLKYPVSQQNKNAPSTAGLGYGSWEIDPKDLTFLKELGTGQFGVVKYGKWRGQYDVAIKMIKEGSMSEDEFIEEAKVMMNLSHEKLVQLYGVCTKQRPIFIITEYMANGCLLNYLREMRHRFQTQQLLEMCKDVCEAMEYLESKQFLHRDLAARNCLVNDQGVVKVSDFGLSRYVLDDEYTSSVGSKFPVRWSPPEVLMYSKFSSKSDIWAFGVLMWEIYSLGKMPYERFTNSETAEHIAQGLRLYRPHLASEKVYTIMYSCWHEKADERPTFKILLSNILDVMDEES
Sequence of Tyrosine-protein kinase Blk (Homo sapiens) (P51451 2-505 limits assumed): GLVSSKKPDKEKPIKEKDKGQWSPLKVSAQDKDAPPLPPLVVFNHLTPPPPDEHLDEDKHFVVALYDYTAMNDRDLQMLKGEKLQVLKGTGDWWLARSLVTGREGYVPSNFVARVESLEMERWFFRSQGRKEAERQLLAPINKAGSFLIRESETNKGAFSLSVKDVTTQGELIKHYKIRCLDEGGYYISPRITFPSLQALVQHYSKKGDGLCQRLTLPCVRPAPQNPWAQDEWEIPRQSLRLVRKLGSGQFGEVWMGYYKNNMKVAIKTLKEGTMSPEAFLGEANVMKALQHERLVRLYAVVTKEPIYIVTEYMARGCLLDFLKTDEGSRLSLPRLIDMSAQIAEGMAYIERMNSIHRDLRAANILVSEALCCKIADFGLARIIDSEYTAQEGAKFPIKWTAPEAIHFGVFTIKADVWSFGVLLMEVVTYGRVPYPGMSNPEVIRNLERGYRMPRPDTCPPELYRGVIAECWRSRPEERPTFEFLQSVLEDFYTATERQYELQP
Sequence of Rho-associated protein kinase 2 (Homo sapiens) (O75116 whole entry, looked up): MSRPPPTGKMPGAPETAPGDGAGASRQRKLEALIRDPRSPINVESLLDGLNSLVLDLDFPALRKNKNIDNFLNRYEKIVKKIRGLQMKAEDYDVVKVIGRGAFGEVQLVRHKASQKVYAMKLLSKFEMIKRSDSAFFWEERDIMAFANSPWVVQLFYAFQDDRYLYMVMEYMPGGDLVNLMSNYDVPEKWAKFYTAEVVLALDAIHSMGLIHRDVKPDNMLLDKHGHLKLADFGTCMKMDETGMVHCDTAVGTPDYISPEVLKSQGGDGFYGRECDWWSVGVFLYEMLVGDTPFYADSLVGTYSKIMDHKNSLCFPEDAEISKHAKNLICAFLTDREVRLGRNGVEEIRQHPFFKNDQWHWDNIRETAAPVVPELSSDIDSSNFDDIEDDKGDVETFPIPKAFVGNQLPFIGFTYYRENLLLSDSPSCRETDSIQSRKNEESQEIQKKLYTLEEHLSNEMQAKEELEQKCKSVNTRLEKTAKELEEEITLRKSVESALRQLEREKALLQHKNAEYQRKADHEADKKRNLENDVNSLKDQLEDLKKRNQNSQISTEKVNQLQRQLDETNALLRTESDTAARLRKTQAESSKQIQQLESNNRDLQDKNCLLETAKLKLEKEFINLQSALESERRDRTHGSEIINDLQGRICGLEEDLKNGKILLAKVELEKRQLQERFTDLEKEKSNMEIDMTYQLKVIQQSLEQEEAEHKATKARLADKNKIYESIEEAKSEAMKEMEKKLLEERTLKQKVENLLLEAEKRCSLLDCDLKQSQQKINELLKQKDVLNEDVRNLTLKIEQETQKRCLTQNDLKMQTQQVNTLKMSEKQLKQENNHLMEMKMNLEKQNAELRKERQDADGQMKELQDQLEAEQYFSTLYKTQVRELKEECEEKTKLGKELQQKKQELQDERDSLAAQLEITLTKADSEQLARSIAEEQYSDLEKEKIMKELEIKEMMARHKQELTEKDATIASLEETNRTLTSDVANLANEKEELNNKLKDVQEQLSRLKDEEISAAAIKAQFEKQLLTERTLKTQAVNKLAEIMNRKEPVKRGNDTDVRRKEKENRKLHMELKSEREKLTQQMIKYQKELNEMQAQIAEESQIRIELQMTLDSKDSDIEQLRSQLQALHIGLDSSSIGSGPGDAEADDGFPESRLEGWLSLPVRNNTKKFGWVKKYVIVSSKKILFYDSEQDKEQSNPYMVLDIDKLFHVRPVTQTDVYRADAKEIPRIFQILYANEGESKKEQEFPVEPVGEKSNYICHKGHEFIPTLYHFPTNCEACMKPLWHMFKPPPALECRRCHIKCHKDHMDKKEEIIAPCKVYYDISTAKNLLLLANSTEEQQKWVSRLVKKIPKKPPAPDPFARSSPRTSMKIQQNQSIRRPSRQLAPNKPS
Sequence of Protein kinase C epsilon type (Homo sapiens) (Q02156 whole entry): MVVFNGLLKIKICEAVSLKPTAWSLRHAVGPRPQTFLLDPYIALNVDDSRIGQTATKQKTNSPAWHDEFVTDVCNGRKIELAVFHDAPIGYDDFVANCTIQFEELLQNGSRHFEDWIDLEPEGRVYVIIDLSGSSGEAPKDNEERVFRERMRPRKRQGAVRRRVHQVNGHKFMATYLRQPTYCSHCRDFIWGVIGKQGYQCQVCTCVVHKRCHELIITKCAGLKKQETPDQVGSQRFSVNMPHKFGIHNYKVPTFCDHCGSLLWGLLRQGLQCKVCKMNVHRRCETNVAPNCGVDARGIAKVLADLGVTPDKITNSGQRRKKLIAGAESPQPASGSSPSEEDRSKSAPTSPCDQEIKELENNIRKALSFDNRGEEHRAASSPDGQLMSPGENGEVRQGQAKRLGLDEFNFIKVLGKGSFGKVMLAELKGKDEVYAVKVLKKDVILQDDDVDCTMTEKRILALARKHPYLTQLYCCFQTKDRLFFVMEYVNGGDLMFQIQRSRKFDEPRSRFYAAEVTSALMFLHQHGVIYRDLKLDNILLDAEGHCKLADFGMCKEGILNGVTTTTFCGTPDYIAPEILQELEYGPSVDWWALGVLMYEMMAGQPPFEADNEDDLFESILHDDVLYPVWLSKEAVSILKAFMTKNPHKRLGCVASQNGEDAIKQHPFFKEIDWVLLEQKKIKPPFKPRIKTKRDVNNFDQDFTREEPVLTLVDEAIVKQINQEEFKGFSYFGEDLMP
Sequence of Serine/threonine-protein kinase pim-1 (Homo sapiens) (P11309 whole entry, looked up): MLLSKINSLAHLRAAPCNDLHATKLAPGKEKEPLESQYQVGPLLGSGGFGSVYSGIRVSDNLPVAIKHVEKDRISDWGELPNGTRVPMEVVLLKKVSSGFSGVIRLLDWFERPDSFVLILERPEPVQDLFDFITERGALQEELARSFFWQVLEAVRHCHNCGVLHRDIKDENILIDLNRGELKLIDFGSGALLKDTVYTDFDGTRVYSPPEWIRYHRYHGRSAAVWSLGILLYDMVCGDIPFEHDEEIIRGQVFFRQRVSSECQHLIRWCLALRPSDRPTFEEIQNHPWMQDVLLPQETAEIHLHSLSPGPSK
Sequence of D(3) dopamine receptor (Homo sapiens) (P35462 whole entry): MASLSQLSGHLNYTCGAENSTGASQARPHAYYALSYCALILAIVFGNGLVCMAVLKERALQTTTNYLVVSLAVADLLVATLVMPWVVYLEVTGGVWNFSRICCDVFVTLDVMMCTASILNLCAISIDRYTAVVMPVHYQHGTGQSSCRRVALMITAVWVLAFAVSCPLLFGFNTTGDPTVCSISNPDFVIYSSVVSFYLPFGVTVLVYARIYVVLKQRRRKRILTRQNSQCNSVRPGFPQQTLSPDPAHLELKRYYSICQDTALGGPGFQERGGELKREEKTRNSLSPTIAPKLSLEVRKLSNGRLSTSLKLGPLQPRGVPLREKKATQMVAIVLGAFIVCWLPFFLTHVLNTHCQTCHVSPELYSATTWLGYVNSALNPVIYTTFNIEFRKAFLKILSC

C[C@@]1(Cc2ccc(C#N)cc2)C(=O)N(c2cc(Cl)cc(Cl)c2)c2ncc(C(=O)NC3(c4nc(C5CCC5)no4)CC3)n21 [BI 9446]
residual activity [1]: 100% | residual activity [2]: 100% | residual activity [3]: 78% | residual activity [4]: 90% | residual activity [5]: 100% | residual activity [6]: 82% | residual activity [7]: 100% | residual activity [8]: 100% | residual activity [9]: 93% | residual activity [10]: 89% | residual activity [11]: 100% | residual activity [12]: 92% | residual activity [13]: 94% | residual activity [14]: 100% | residual activity [15]: 97% | residual activity [16]: 100% | residual activity [17]: 89% | residual activity [18]: 100% | residual activity [19]: 100% | residual activity [20]: 92% | residual activity [21]: 100% | residual activity [22]: 98% | residual activity [23]: 100% | residual activity [24]: 100% | residual activity [25]: 100% | residual activity [26]: 100% | residual activity [27]: 98% | residual activity [28]: 100% | residual activity [29]: 90% | residual activity [30]: 100% | residual activity [31]: 100% | residual activity [32]: 100% | residual activity [33]: 100% | residual activity [34]: 100% | residual activity [35]: 100% | residual activity [36]: 100% | residual activity [37]: 98% | residual activity [38]: 100% | residual activity [39]: 100% | residual activity [40]: 100% | residual activity [41]: 100% | inhibition [42]: 31.5% | inhibition [43]: 9.55% | inhibition [44]: 20% | inhibition [45]: 58%

C[C@H](NC(=O)c1cnc2n1[C@](C)(Cc1ccc(C#N)cc1)C(=O)N2c1cc(Cl)c(F)c(Cl)c1)C(=O)NC1(c2ccccn2)CC1 [BI 1950]
residual activity [1]: 100% | residual activity [2]: 100% | residual activity [3]: 83% | residual activity [4]: 100% | residual activity [5]: 100% | residual activity [6]: 100% | residual activity [7]: 98% | residual activity [8]: 100% | residual activity [9]: 96% | residual activity [10]: 96% | residual activity [11]: 96% | residual activity [12]: 99% | residual activity [13]: 97% | residual activity [14]: 100% | residual activity [15]: 100% | residual activity [16]: 100% | residual activity [17]: 100% | residual activity [18]: 100% | residual activity [19]: 100% | residual activity [20]: 100% | residual activity [21]: 98% | residual activity [22]: 100% | residual activity [23]: 100% | residual activity [24]: 100% | residual activity [25]: 100% | residual activity [26]: 100% | residual activity [27]: 100% | residual activity [28]: 100% | residual activity [29]: 88% | residual activity [30]: 100% | residual activity [31]: 100% | residual activity [32]: 100% | residual activity [33]: 100% | residual activity [34]: 100% | residual activity [35]: 100% | residual activity [36]: 100% | residual activity [37]: 100% | residual activity [38]: 100% | residual activity [39]: 100% | residual activity [40]: 100% | residual activity [41]: 100% | inhibition [42]: 17.7% | inhibition [43]: -3.54% | inhibition [44]: 1.43% | inhibition [45]: 25.9%
